Measurements as given in patent US12544547B2, “Gelatin-based microneedle patch for minimally-invasive extraction of bodily fluids” (THE REGENTS OF THE UNIVERSITY OF CALIFORNIA, priority 2020, dated 2026).
Read-outs that look alike come from different tables or passages of the source.

Key:
[1] = In vivo vancomycin detection in ISF versus plasma after intravenous vancomycin; design: species or system Wistar rats; details: Wistar, rat, 1 mg/rat; for concentration at 5 min: 5 min after intravenous injection; for concentration at 30 min / concentration at 60 min: intravenous; for concentration at 30 min: 30 min following injection; for concentration at 60 min: 60 min after injection
Description: In vivo collection of ISF and glucose and vancomycin detection: All animal experiments were approved by the Animal Care and Use Committee of University of California, Los Angeles, and procedures for animals were performed in accordance with the relevant guidelines and regulations. Wistar rats (4-week-old, approximately 70-80 g) were anesthetized with 50 mg/kg sodium pentobarbital. The dorsal hair of each rat was shaved. After the initial mass of the GelMA patch 10 was weighed, it was applied to the dorsal skin of the rat using the thumb and index finger. Gauze was used to fix the patches 10 on the skin. ten minutes later, the patch 10 was removed and the final mass was recorded. To quantify the concentration of the delivered molecules, the wet patch 10 was transferred into a centrifuge tube with 200 μL of DI water. After centrifugation at 12000 rpm for 10 min, the solution in the tube was transferred to be tested. In addition, blood samples were also collected from the tail vein for glucose detection and the plasma was isolated via centrifugation for vancomycin detection. For histopathology, the skin was harvested and fixed in 10% neutral buffered formalin (BBC Biochemical, WA, USA), processed by a standard method, and embedded in paraffin. 4 μm in thickness tissue sections were stained with hematoxylin and eosin (H&E, BBC Biochemical) to confirm that GelMA microneedles 14 effectively penetrate the skin.
In the glucose detection experiment, the rats were intravenously injected with 1 mL of 0.2 g/mL glucose in saline. The glucose concentrations in ISF were tested using Glucose Assay Kit (Sigma) and the glucose levels in blood were tested using a glucometer (Clarity Diagnostics, US). In the vancomycin detection experiment, the rats were intravenously injected with 1 mL vancomycin at a concentration of 1 mg/mL in saline. The vancomycin concentration in ISF and plasma samples was also quantified by LC-MS/MS analysis (mentioned above).

[2] = design: species or system Wistar rats; details: rat, in vivo
[3] = interstitial fluid (ISF), read-out: vancomycin concentration in ISF
[4] = plasma, read-out: vancomycin concentration in plasma

Row | Compound | concentration at 5 min [1, 3] [µg/mL] | concentration at 30 min [1, 3] [µg/mL] | concentration at 60 min [1, 3] [µg/mL] | concentration at 5 min [1, 4] [µg/mL] | concentration at 30 min [1, 4] [µg/mL] | concentration at 60 min [1, 4] [µg/mL] | skin recovery time after removing the patch [2] [min]
1 | CN[C@H](CC(C)C)C(=O)N[C@H]1C(=O)N[C@@H](CC(N)=O)C(=O)N[C@H]2C(=O)N[C@H]3C(=O)N[C@H](C(=O)N[C@H](C(=O)O)c4cc(O)cc(O)c4-c4cc3ccc4O)[C@H](O)c3ccc(c(Cl)c3)Oc3cc2cc(c3O[C@@H]2O[C@H](CO)[C@@H](O)[C@H](O)[C@H]2O[C@H]2C[C@](C)(N)[C@H](O)[C@H](C)O2)Oc2ccc(cc2Cl)[C@H]1O [vancomycin] | 5.93 ± 0.18 | ~6.5 | ~4 | 8.27 ± 0.13 | ~6.5 | ~4 | 
2 | gelatin methacryloyl (GelMA) [GelMA microneedle patch] |  |  |  |  |  |  | ≤ 20
